“Also recorded” adds a separate entry of the source. Like-named read-outs stand apart in the source and are kept apart here.
How the values were obtained:
phthalyl amidase [1] = biological target: T1, phthalyl amidase (Xanthobacter agilis, UniProt P0C2Y0); assay: Influence of effectors and organic solvents on enzyme activity; assay type: biochemical
T1 construct: 42-aa signal peptide removed
Method: A typical reaction mixture consisted of 1 ml total volume and contained 0.1 mM III, 0.1 μM phthalyl amidase in 50 mM potassium phosphate buffer (pH 5.5-9.0) at 32° C. for 20 minutes. The reactions were stopped by the addition of 1 ml methanol. After removal of precipitate by centrifugation, an aliquot of the supernatant fraction (typically 30 μ) was monitored for the beta-lactam nucleus and phthalic acid by HPLC using a Zorbax C8 column (0.46×15 cm; MacMod Analytical Inc., Chadds Ford, Pa.). The two reaction products were eluted by a mobile phase constructed as continuous mixed gradients from (a) 1% ACN (acetonitrile)/0.2% TFA (trifluoroacetic acid) and (b) 80% ACN/0.2% TFA as follows: 1) 0% (b), 3 min; 2) 0-50% (b), 0.5 min; 3) 50-100% (b), 3 min; 4) 100% (b), 2.5 min; 5) 100-0% (b), 0.1 min; and 6) 0% (b), 5 min.
The effect of various agents on the enzymatic activity of phthalyl amidase was determined using standard conditions (see Example 5). All agents were tested at 1 mM final concentration unless otherwise indicated.

Xanthobacter agilis = assay: Induction of phthalyl amidase in Xanthobacter agilis cultures; assay type: cell-based; conditions: for effect on wet weight cell mass (in words): Table 1 summary; for Total units/mg protein: cell-free lysate, chromogenic substrate II
Method: Three compounds at different concentrations were added to aerated cultures of the organism growing at 30° C. in Bac MI medium. The compounds tested were phthalate (PAA), phthalyl glycine (PAG), and PMBL. Cells of Xanthobacter agilis were grown with aeration for 24 hours. This vegetative culture was used to inoculate Bac MI medium (50 ml) containing different concentrations of the compounds to be tested. After 48 hours growth under standard conditions, cells were harvested by centrifugation and wet weight of the cells was determined. Crude cell extracts were prepared by lysozyme treatment of the cells as in Example 1. Suspensions were briefly sonicated to break up the viscous suspension. A cell-free supernatant was obtained by centrifugation of the suspension at 14,000 rpm for 15 minutes.
Enzyme activity in cell-free lysates was determined by monitoring conversion of the chromogenic substrate 4-(2'-carboxy-N-benzoyl)amino-2-carboxy-nitrobenzene (II) to 2-nitro-5-amino benzoic acid and phthalic acid, a reaction catalyzed by phthalyl amidase as shown below: [drawing 4]
The assay reaction mixture (1 ml) consisted of 0.3 μmol of the chromogenic substrate (II) and 0.001-0.5 μg of enzyme preparation in 50 mM potassium phosphate buffer, pH 8.0 (buffer A). The enzymatic reaction was conducted at 30° C. for 10 minutes and the appearance of product was monitored at 380 nm (or 430 nm). The amount of substrate hydrolyzed was calculated from a standard curve of the amine product.

phthalyl amidase [2] = biological target: T1, phthalyl amidase; assay: Substrate specificity: chemical structure requirements for enzyme activity; assay type: biochemical; conditions: for Relative Activity: 2.5 μmol compound, 0.3 units enzyme; for suitability as substrate (in words): Tables 10 and 11
Method: The activity of phthalyl amidase against 25 compounds was determined. The compounds were divided into beta-lactams (Table 9), phthalyl amides (Table 10), and aromatic ring substituted amides (Table 11). Each reaction mixture (1 ml total volume) contained 2.5 μmol of compound and 0.3 units of enzyme (based on the chromogenic substrate) of the preparative scale purified enzyme, in 50 mM phosphate buffer, pH 8.0. The reactions were conducted at 30° C. Samples of the reaction mixture were taken at various times, and methanol (equal volume) was added to stop the reaction. The samples were examined by HPLC to determine the extent of substrate hydrolysis. The amount of compound hydrolyzed was calculated from a standard curve of the test compound. All substrates were stable in buffer at 30° C. and pH 8.0 in the absence of enzyme for 24 hours.

[3] = agent at 1 mM final concentration
[4] = read-out: % of Control Activity
[5] = Table 9 beta-lactams, III = 100, 50 mM phosphate pH 8.0, 30° C.
[6] = agent at 1 mM final concentration, read-out: % of Control Activity
[7] = Table 11 aromatic ring substituted amides, XVII = 100.0, pH 8.0, 30° C.
[8] = 20 min, read-out: % Residual enzyme activity

T1 sequence (P0C2Y0 2-453): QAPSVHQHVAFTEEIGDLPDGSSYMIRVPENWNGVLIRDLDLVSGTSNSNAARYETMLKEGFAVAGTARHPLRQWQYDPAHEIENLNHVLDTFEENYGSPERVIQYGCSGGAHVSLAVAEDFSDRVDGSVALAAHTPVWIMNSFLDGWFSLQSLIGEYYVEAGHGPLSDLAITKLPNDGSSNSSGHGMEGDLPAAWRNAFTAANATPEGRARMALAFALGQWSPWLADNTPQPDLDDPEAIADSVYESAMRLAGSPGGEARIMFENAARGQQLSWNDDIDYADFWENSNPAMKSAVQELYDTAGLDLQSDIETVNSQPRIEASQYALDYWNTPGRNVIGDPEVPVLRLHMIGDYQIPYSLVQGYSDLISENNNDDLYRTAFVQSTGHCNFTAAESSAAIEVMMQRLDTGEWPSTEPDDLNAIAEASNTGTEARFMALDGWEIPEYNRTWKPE

With `[Cl][Fe]([Cl])[Cl]` [FeCl3] the “% of Control Activity” value (phthalyl amidase [1]; [3]) was 96%.
In the case of `[Cl][Ni][Cl]` [NiCl2], the “% of Control Activity” value (phthalyl amidase [1]; [3]) is reported as 94%.
With `O=C(O)CI` [Iodoacetate] the “effect on enzyme activity (in words)” value (phthalyl amidase [1]) was “significantly reduced; also recorded: significantly inhibited”, the remaining activity at 1000 µM (phthalyl amidase [1]; [4]) was 91% and the remaining activity at 10000 µM (phthalyl amidase [1]; [4]) was 46%.
With `O=C(O)CN(CCN(CC(=O)O)CC(=O)O)CC(=O)O` [EDTA] the “effect on enzyme activity (in words)” value (phthalyl amidase [1]) was “little or no effect” and the remaining activity at 1000 µM (phthalyl amidase [1]; [4]) was 103%.
`O=C(O)CN1C(=O)C(NC(=O)c2ccccc2C(=O)O)C1CCc1ccco1` (stereo not shown) [PMBL] was tested, and the “effect on wet weight cell mass (in words)” value (Xanthobacter agilis) was “no effect”.
`O=C(O)CN1C(=O)C(NC(=O)Cc2ccccc2)C1CCc1ccco1` (stereo not shown) [V] gave a Relative Activity (phthalyl amidase [2]; [5]) of 0.
In the case of `O=C(O)CNC(=O)c1ccccc1C(=O)O` [PAG, phthalyl glycine], the “effect on wet weight cell mass (in words)” value (Xanthobacter agilis) is reported as “increased”, the Units/g cells (Xanthobacter agilis; inducer addition 1 mg/ml) is reported as 1.04 Units/g cells and the Total units/mg protein (Xanthobacter agilis; inducer addition 1 mg/ml) is reported as 0.35 µmol/min/mg. The Units/g cells (Xanthobacter agilis; inducer addition 5 mg/ml) was 9.4 Units/g cells, the Cell weight (Xanthobacter agilis; inducer addition 5 mg/ml, 48 hours growth in Bac MI medium) was 0.5 g/50 ml and the Total units/mg protein (Xanthobacter agilis; inducer addition 5 mg/ml) was 4.4 µmol/min/mg.
`O=C(O)c1cc(SSc2ccc([N+](=O)[O-])c(C(=O)O)c2)ccc1[N+](=O)[O-]` [DTNB, dithionitrobenzoate] gave a remaining activity at 1000 µM (phthalyl amidase [1]; [6]) of 98%.
`NC(=O)c1ccc[n+]([C@@H]2O[C@H](COP(=O)([O-])OP(=O)(O)OC[C@H]3O[C@@H](n4cnc5c(N)ncnc54)[C@H](O)[C@@H]3O)[C@@H](O)[C@H]2O)c1` [NAD, nicotinamide adenine nucleotide] gave a remaining activity at 1000 µM (phthalyl amidase [1]; [6]) of 101%.
In the case of `NC(=O)c1ccc[n+]([C@@H]2O[C@H](COP(=O)([O-])OP(=O)(O)OC[C@H]3O[C@@H](n4cnc5c(N)ncnc54)[C@H](OP(=O)(O)O)[C@@H]3O)[C@@H](O)[C@H]2O)c1` [NADP, nicotinamide adenine dinucleotide phosphate], the remaining activity at 1000 µM (phthalyl amidase [1]; [6]) is reported as 99%.
With `CCCCCCC(C(=O)O)n1cnc(NC(=O)c2ncccc2C(=O)O)c1` (stereo not shown) [Compound XX] the “suitability as substrate (in words)” value (phthalyl amidase [2]) was “acceptable”.
With `CCCCCCC(C(=O)O)n1cnc(NC(=O)c2ccccc2O)c1` (stereo not shown) [XXV] the “Relative Activity” value (phthalyl amidase [2]; [7]) was 0.
In the case of `CCCCCCC(C(=O)O)n1cnc(NC(=O)c2ccccc2C(=O)O)c1` (stereo not shown) [XVII], the “Relative Activity” value (phthalyl amidase [2]; [7]) is reported as 100.0.
Work on `Nc1nc2c(c(=O)[nH]1)N[C@H](CNc1ccc(C(=O)N[C@@H](CCC(=O)O)C(=O)O)cc1)CN2` [THF, tetrahydrofolate] yielded a remaining activity at 1000 µM (phthalyl amidase [1]; [6]) of 100%.
For `CC(C)NC(=O)c1ccccc1C(=O)O` [XII], the “Relative Activity” value (phthalyl amidase [2]; Table 10 phthalyl amides, III = 100.0, 50 mM phosphate pH 8.0, 30° C.) was 9.7.
In the case of `[Cl-].[Cl-].[Zn+2]` [ZnCl2], the “% of Control Activity” value (phthalyl amidase [1]; [3]) is reported as 100%.
With `CCCCCCC(C(=O)O)n1cnc(NC(=O)c2ccccc2-c2nn[nH]n2)c1` (stereo not shown) [XXII] the “Relative Activity” value (phthalyl amidase [2]; [7]) was 0.2 and the “suitability as substrate (in words)” value (phthalyl amidase [2]) was “Low levels of hydrolysis”.
Work on `Cc1cc2nc3c(=O)[nH]c(=O)nc-3n(C[C@H](O)[C@H](O)[C@H](O)COP(=O)(O)OP(=O)(O)OC[C@H]3O[C@@H](n4cnc5c(N)ncnc54)[C@H](O)[C@@H]3O)c2cc1C` [FAD, flavin adenine dinucleotide] yielded a remaining activity at 1000 µM (phthalyl amidase [1]; [6]) of 101%.
`O=C(O)CN1C(=O)C(NC(=O)c2ccccc2)C1CCc1ccco1` (stereo not shown) [VI] showed a Relative Activity (phthalyl amidase [2]; [5]) of 0.
For `NC(=O)C1=CN([C@@H]2O[C@H](COP(=O)(O)OP(=O)(O)OC[C@H]3O[C@@H](n4cnc5c(N)ncnc54)[C@H](O)[C@@H]3O)[C@@H](O)[C@H]2O)C=CC1` [NADH], the remaining activity at 1000 µM (phthalyl amidase [1]; [6]) was 96%.
In the case of `CCCCCCC(C(=O)O)n1cnc(NC(=O)c2ccccc2)c1` (stereo not shown) [XXVIII], the “Relative Activity” value (phthalyl amidase [2]; [7]) is reported as 0.
For `CCO` [Ethanol], the remaining activity at 1 % (phthalyl amidase [1]; [8]) was 99%, the remaining activity at 5 % (phthalyl amidase [1]; [8]) was 85% and the remaining activity at 10 % (phthalyl amidase [1]; [8]) was 45%.
With `NC(=O)C1=CN([C@@H]2O[C@H](COP(=O)(O)OP(=O)(O)OC[C@H]3O[C@@H](n4cnc5c(N)ncnc54)[C@H](OP(=O)(O)O)[C@@H]3O)[C@@H](O)[C@H]2O)C=CC1` [NADPH] the remaining activity at 1000 µM (phthalyl amidase [1]; [6]) was 99%.

From patent US5451522A, “Genes encoding and method of expressing an enzyme: phthalyl amidase” (priority 1994, dated 1995)
